In patent US9771369B2, “Compounds and methods for kinase modulation, and indications therefor” (Plexxikon Inc., priority 2014, dated 2017):

These compounds were tested against c-kit mutant D816V (Homo sapiens (Human), UniProt P10721, D816V/DEL694-753) (assay: c-Kit mutant D816V biochemical assay (AlphaScreen kinase activity)).
Chain of c-kit mutant D816V (P10721 other isoform, or with tags, fused parts or gaps D816V/del 694-753): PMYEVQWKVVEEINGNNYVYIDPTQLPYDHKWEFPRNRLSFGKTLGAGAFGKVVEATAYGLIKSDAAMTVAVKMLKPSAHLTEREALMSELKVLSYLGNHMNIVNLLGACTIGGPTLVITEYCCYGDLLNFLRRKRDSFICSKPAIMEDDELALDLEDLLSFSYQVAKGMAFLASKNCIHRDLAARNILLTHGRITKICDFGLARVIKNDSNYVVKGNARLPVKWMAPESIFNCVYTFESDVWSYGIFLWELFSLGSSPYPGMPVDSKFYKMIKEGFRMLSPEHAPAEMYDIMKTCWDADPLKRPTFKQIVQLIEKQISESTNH
In short: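 Recombinant His-tagged c-Kit D816V kinase domain (residues 551-934, insert 694-753 deleted, E. coli-expressed) phosphorylating 30 nM biotin-(E4Y)10 with 10 μM ATP, HEPES pH 7.2, Mg/Mn, 5% DMSO; 30 min, room temperature. Phosphorylation detected by AlphaScreen (streptavidin donor/PY30 acceptor beads); IC50 from 8-point 1:3 series.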
Cc1cc2c(N3CCC(C)(c4nc(C)c(-c5ccc(OC(F)F)cc5)[nH]4)CC3)ncnc2[nH]1 [P-3196, 4-[4-[5-[4-(difluoromethoxy)phenyl]-4-methyl-1H-imidazol-2-yl]-4-methyl-1-piperidyl]-6-methyl-7H-pyrrolo[2,3-d]pyrimidine] gave an IC50 of 0.0001 to 1 µM.
Compound CCc1[nH]c(C2CCN(c3ncnc4[nH]c(-c5cnn(C(F)F)c5)cc34)CC2)nc1C [P-3197, 6-[1-(difluoromethyl)pyrazol-4-yl]-4-[4-(5-ethyl-4-methyl-1H-imidazol-2-yl)-1-piperidyl]-7H-pyrrolo[2,3-d]pyrimidine] has an IC50 of 0.0001 to 1 µM.
In the case of CCc1[nH]c(C2CCN(c3ncnc4[nH]c(-c5ccc(C#N)cc5)cc34)CC2)nc1C [P-3198, 4-[4-[4-(5-ethyl-4-methyl-1H-imidazol-2-yl)-1-piperidyl]-7H-pyrrolo[2,3-d]pyrimidin-6-yl]benzonitrile], the IC50 is reported as 0.0001 to 1 µM.
COc1ccc(-c2[nH]c(C3(C)CCN(c4ncnc5[nH]c(-c6ccc(C(=O)O)cc6)cc45)CC3)nc2C)cc1F [P-3199, 4-[4-[4-[5-(3-fluoro-4-methoxy-phenyl)-4-methyl-1H-imidazol-2-yl]-4-methyl-1-piperidyl]-7H-pyrrolo[2,3-d]pyrimidin-6-yl]benzoic acid] showed an IC50 of 0.0001 to 1 µM.
Cc1nc(C2(C)CCN(c3ncnc4[nH]nc(C)c34)CC2)[nH]c1-c1ccc(Cl)cc1 [P-3200, 4-[4-[5-(4-chlorophenyl)-4-methyl-1H-imidazol-2-yl]-4-methyl-1-piperidyl]-3-methyl-1H-pyrazolo[3,4-d]pyrimidine] was tested, and the IC50 was 0.0001 to 1 µM.
With Cc1nc(C2(C)CCN(c3ncnc4[nH]nc(C)c34)CC2)[nH]c1-c1cccc(OC(F)F)c1 [P-3201, 4-[4-[5-[3-(difluoromethoxy)phenyl]-4-methyl-1H-imidazol-2-yl]-4-methyl-1-piperidyl]-3-methyl-1H-pyrazolo[3,4-d]pyrimidine] the IC50 was 0.0001 to 1 µM.
Compound COc1ccc(-c2[nH]c(C3(C)CCN(c4ncnc5[nH]nc(C)c45)CC3)nc2C)cc1F [P-3202, 4-[4-[5-(3-fluoro-4-methoxy-phenyl)-4-methyl-1H-imidazol-2-yl]-4-methyl-1-piperidyl]-3-methyl-1H-pyrazolo[3,4-d]pyrimidine] has an IC50 of 0.0001 to 1 µM.
Cc1nc(C2(C)CCN(c3ncnc4[nH]nc(C)c34)CC2)[nH]c1-c1ccc2c(c1)OC(F)(F)O2 [P-3203, 4-[4-[5-(2,2-difluoro-1,3-benzodioxol-5-yl)-4-methyl-1H-imidazol-2-yl]-4-methyl-1-piperidyl]-3-methyl-1H-pyrazolo[3,4-d]pyrimidine] gave an IC50 of 0.0001 to 1 µM.
Fc1ccc(-c2cc3c(N4CCC(c5nnc(-c6ccc(F)cc6)[nH]5)CC4)ncnc3[nH]2)cc1 [P-3206, 6-(4-fluorophenyl)-4-[4-[5-(4-fluorophenyl)-4H-1,2,4-triazol-3-yl]-1-piperidyl]-7H-pyrrolo[2,3-d]pyrimidine] gave an IC50 of 0.0001 to 1 µM.
COc1cc(-c2cc3c(N4CCC(c5nnc(-c6cccc(OC(F)F)c6)[nH]5)CC4)ncnc3[nH]2)ccn1 [P-3207, 4-[4-[5-[3-(difluoromethoxy)phenyl]-4H-1,2,4-triazol-3-yl]-1-piperidyl]-6-(2-methoxy-4-pyridyl)-7H-pyrrolo[2,3-d]pyrimidine] was tested, and the IC50 was 1 to 10 µM.
CCOc1ccc(-c2[nH]c(C3(C)CCN(c4ncnc5[nH]c(-c6ccc(OC)nc6)cc45)CC3)nc2C)cc1F [P-3209, 4-[4-[5-(4-ethoxy-3-fluoro-phenyl)-4-methyl-1H-imidazol-2-yl]-4-methyl-1-piperidyl]-6-(6-methoxy-3-pyridyl)-7H-pyrrolo[2,3-d]pyrimidine] gave an IC50 of 0.0001 to 1 µM.
CCOc1ccc(-c2[nH]c(C3(C)CCN(c4ncnc5[nH]c(-c6cnn(C(F)F)c6)cc45)CC3)nc2C)cc1F [P-3210, 6-[1-(difluoromethyl)pyrazol-4-yl]-4-[4-[5-(4-ethoxy-3-fluoro-phenyl)-4-methyl-1H-imidazol-2-yl]-4-methyl-1-piperidyl]-7H-pyrrolo[2,3-d]pyrimidine] showed an IC50 of 0.0001 to 1 µM.
COc1ccc(-c2[nH]c(C3(C)CCN(c4ncnc5[nH]c(-c6ccc(C#N)nc6)cc45)CC3)nc2C)cc1F [P-3211, 5-[4-[4-[5-(3-fluoro-4-methoxy-phenyl)-4-methyl-1H-imidazol-2-yl]-4-methyl-1-piperidyl]-7H-pyrrolo[2,3-d]pyrimidin-6-yl]pyridine-2-carbonitrile] showed an IC50 of 0.0001 to 1 µM.
Work on COc1ccc(-c2[nH]c(C3(C)CCN(c4ncnc5[nH]c(-c6ccc(C(N)=O)cc6)cc45)CC3)nc2C)cc1F [P-3212, 4-[4-[4-[5-(3-fluoro-4-methoxy-phenyl)-4-methyl-1H-imidazol-2-yl]-4-methyl-1-piperidyl]-7H-pyrrolo[2,3-d]pyrimidin-6-yl]benzamide] yielded an IC50 of 0.0001 to 1 µM.
Compound COc1ccc(-c2[nH]c(C3(C)CCN(c4ncnc5[nH]c(-c6ccc(NS(C)(=O)=O)cc6)cc45)CC3)nc2C)cc1F [P-3213, N-[4-[4-[4-[5-(3-fluoro-4-methoxy-phenyl)-4-methyl-1H-imidazol-2-yl]-4-methyl-1-piperidyl]-7H-pyrrolo[2,3-d]pyrimidin-6-yl]phenyl]methanesulfonamide] has an IC50 of 0.0001 to 1 µM.
Compound COc1ccc(-c2[nH]c(C3(C)CCN(c4ncnc5[nH]c(-c6ccc(OCC(=O)O)cc6)cc45)CC3)nc2C)cc1F [P-3214, 2-[4-[4-[4-[5-(3-fluoro-4-methoxy-phenyl)-4-methyl-1H-imidazol-2-yl]-4-methyl-1-piperidyl]-7H-pyrrolo[2,3-d]pyrimidin-6-yl]phenoxy]acetic acid] has an IC50 of 0.0001 to 1 µM.
With COc1ccc(-c2[nH]c(C3(C)CCN(c4ncnc5[nH]c(-c6ccc(N7CCOCC7)nc6)cc45)CC3)nc2C)cc1F [P-3215, 4-[5-[4-[4-[5-(3-fluoro-4-methoxy-phenyl)-4-methyl-1H-imidazol-2-yl]-4-methyl-1-piperidyl]-7H-pyrrolo[2,3-d]pyrimidin-6-yl]-2-pyridyl]morpholine] the IC50 was 0.0001 to 1 µM.
COc1ccc(-c2[nH]c(C3(C)CCN(c4ncnc5[nH]c(-c6ccc(C(N)=O)cc6)cc45)CC3)nc2C)cc1C [P-3216, 4-[4-[4-[5-(4-methoxy-3-methyl-phenyl)-4-methyl-1H-imidazol-2-yl]-4-methyl-1-piperidyl]-7H-pyrrolo[2,3-d]pyrimidin-6-yl]benzamide] showed an IC50 of 0.0001 to 1 µM.
With COc1ccc(-c2[nH]c(C3(C)CCN(c4ncnc5[nH]c(-c6ccc(OCC(=O)O)cc6)cc45)CC3)nc2C)cc1C [P-3217, 2-[4-[4-[4-[5-(4-methoxy-3-methyl-phenyl)-4-methyl-1H-imidazol-2-yl]-4-methyl-1-piperidyl]-7H-pyrrolo[2,3-d]pyrimidin-6-yl]phenoxy]acetic acid] the IC50 was 0.0001 to 1 µM.
Work on CNC(=O)c1ccc(-c2cc3c(N4CCC(C)(c5nc(C)c(-c6ccc(OC)c(C)c6)[nH]5)CC4)ncnc3[nH]2)cn1 [P-3218, 5-[4-[4-[5-(4-methoxy-3-methyl-phenyl)-4-methyl-1H-imidazol-2-yl]-4-methyl-1-piperidyl]-7H-pyrrolo[2,3-d]pyrimidin-6-yl]-N-methyl-pyridine-2-carboxamide] yielded an IC50 of 0.0001 to 1 µM.
Compound COc1ccc(-c2[nH]c(C3(C)CCN(c4ncnc5[nH]c(-c6ccc(N7CCOCC7)nc6)cc45)CC3)nc2C)cc1C [P-3219, 4-[5-[4-[4-[5-(4-methoxy-3-methyl-phenyl)-4-methyl-1H-imidazol-2-yl]-4-methyl-1-piperidyl]-7H-pyrrolo[2,3-d]pyrimidin-6-yl]-2-pyridyl]morpholine] has an IC50 of 0.0001 to 1 µM.
With CNC(=O)c1ccc(-c2cc3c(N4CCC(C)(c5nc(C)c(-c6ccc(OC)c(F)c6)[nH]5)CC4)ncnc3[nH]2)cn1 [P-3220, 5-[4-[4-[5-(3-fluoro-4-methoxy-phenyl)-4-methyl-1H-imidazol-2-yl]-4-methyl-1-piperidyl]-7H-pyrrolo[2,3-d]pyrimidin-6-yl]-N-methyl-pyridine-2-carboxamide] the IC50 was 0.0001 to 1 µM.
In the case of COc1cccc(-c2[nH]c(C3(C)CCN(c4ncnc5[nH]c(-c6ccc(OCC(=O)O)cc6)cc45)CC3)nc2C)c1 [P-3221, 2-[4-[4-[4-[5-(3-methoxyphenyl)-4-methyl-1H-imidazol-2-yl]-4-methyl-1-piperidyl]-7H-pyrrolo[2,3-d]pyrimidin-6-yl]phenoxy]acetic acid], the IC50 is reported as 0.0001 to 1 µM.
CNC(=O)c1ccc(-c2cc3c(N4CCC(C)(c5nc(C)c(-c6cccc(OC)c6)[nH]5)CC4)ncnc3[nH]2)cn1 [P-3222, 5-[4-[4-[5-(3-methoxyphenyl)-4-methyl-1H-imidazol-2-yl]-4-methyl-1-piperidyl]-7H-pyrrolo[2,3-d]pyrimidin-6-yl]-N-methyl-pyridine-2-carboxamide] gave an IC50 of 0.0001 to 1 µM.
For COc1cccc(-c2[nH]c(C3(C)CCN(c4ncnc5[nH]c(-c6ccc(N7CCOCC7)nc6)cc45)CC3)nc2C)c1 [P-3223, 4-[5-[4-[4-[5-(3-methoxyphenyl)-4-methyl-1H-imidazol-2-yl]-4-methyl-1-piperidyl]-7H-pyrrolo[2,3-d]pyrimidin-6-yl]-2-pyridyl]morpholine], the IC50 was 0.0001 to 1 µM.
In the case of CCOc1ccc(-c2[nH]c(C3(C)CCN(c4ncnc5[nH]c(-c6ccc(OCC(=O)O)cc6)cc45)CC3)nc2C)cc1 [P-3224, 2-[4-[4-[4-[5-(4-ethoxyphenyl)-4-methyl-1H-imidazol-2-yl]-4-methyl-1-piperidyl]-7H-pyrrolo[2,3-d]pyrimidin-6-yl]phenoxy]acetic acid], the IC50 is reported as 0.0001 to 1 µM.
COc1cccc(-c2[nH]c(C3(C)CCN(c4ncnc5[nH]c(-c6ccc(C(N)=O)cc6)cc45)CC3)nc2C)c1 [P-3225, 4-[4-[4-[5-(3-methoxyphenyl)-4-methyl-1H-imidazol-2-yl]-4-methyl-1-piperidyl]-7H-pyrrolo[2,3-d]pyrimidin-6-yl]benzamide] was tested, and the IC50 was 0.0001 to 1 µM.
With CCOc1ccc(-c2[nH]c(C3(C)CCN(c4ncnc5[nH]c(-c6ccc(C(=O)NC)nc6)cc45)CC3)nc2C)cc1 [P-3226, 5-[4-[4-[5-(4-ethoxyphenyl)-4-methyl-1H-imidazol-2-yl]-4-methyl-1-piperidyl]-7H-pyrrolo[2,3-d]pyrimidin-6-yl]-N-methyl-pyridine-2-carboxamide] the IC50 was 0.0001 to 1 µM.
